Laboratory results as given in patent US20180353539A1, “METAL COMPLEXES AS PHARMACEUTICALS FOR TREATMENT AND PREVENTION OF CANCER AND INFLAMMATORY DISEASES” (UNIVERSITY OF SOUTHERN CALIFORNIA, priority 2017, published 2018).

Experiments:
[1] = MTT assays; salicylic acid alone
[2] = system: prostate cancer with diffuse metastases; test: Case Study 7; type: in vivo, human
Experimental: A patient had prostate cancer with diffuse metastases, along with severe leg pain. They underwent hormonal therapy, until they developed severe bone pain. They took voltaren injections and solumedrol infusions to alleviate the pain. […] The patient was weak and lost 5 kg of weight in a month. They began the treatment with 125 mg of Zinc Iodide mixing with 1000 ml of sodium chloride 0.9% and 10 ml of DMSO through infusion. […] Their RBC, hemoglobin and serum calcium levels all normalized; and their PSA decrease dramatically to 40 ng/mL. Their quality of life improved greatly, and they had no symptoms.

[3] = system: adenocarcinoma of the pancreatic head; test: Case Study 6; type: in vivo, human; parameters: total bilirubin: unit not given here
Experimental: A person had symptoms of weight loss and abdominal pain over a 2-month period. […] At the head, there was a 38-mm×42 mm mass detected. In addition, their intrahepatic billiard tree was dilated. The patient was given 125 mg of Zinc Iodide mixing with 1000 ml of sodium chloride 0.9% and 10 ml of DMSO through infusion daily for 20 days. […] They gained 4 kg of body weight. […] The patient is symptom free.

liver cancer = test: Case Study 17; type: in vivo, human
Experimental: A person with chronic hepatitis C presented symptoms of abdominal pain. […] They had also been diagnosed with type 2 diabetes three years prior. […] Within 5 days their abdominal pain disappeared, and […] general health improved. […] Their cancer related markers included: AFP: 678 IU/L, GOP: 146 IU/L, GPT: 126 IU/L, and GGT: 124 IU/L. The patient's blood glucose level was 6.7 mmol/L. For the next 90 days, the patient took 50 mg of zinc iodide orally in capsule form 3 times/day. […] Their cancer related markers included: AFP: 107 IU/L, GOP: 195 IU/L, GPT: 69 IU/L, and GGT: 115 IU/L. The patient's blood glucose level was 7.4 mmol/L.

cholangiocarcinoma = test: Case Study 9; type: in vivo, human; parameters: total bilirubin: unit not given here
From the text: A person presented with jaundice, abdominal discomfort and lack of appetite. They could not eat or drink properly. Over the last 3 months, their weight decreased by 8 kg. […] There was also a hypodense lesion with an intraductal growth type, sized at 3.6 cm×4.1 cm, on their liver. […] They were diagnosed with cholangiocarcinoma.

[4] = system: esophageal cancer with multiple lymphatic metastases; test: Case Study 10; type: in vivo, human
Experimental: A person was diagnosed with esophageal cancer with multiple lymphatic metastases. Their blood chemistry profile was normal, but their CEA levels were 6.7 ng/mL. The patient presented symptoms of extreme fatigue, difficult swallowing, chest pains, fever and weight loss. An endoscopy reveled a 4.2 cm×3.7 cm lesion on their esophagus. The tumor had poorly differentiated adenocarcinoma. […] The patient underwent treatments of 200 mg of zinc iodide mixing with 1000 mL of 0.9% sodium chloride solution and in 10 mL of DMSO, 6 times/week for 4 weeks. […] They also stopped steroid treatment. […] After 24 days of the infusion treatment, they began taking 50 mg Zinc Iodide capsules, 3 times/day for 90 days.

lung cancer = test: Case Study 14; type: in vivo, human
Experimental: A person presented with cough and chest pains that persisted over 6 months. In that time, they also lost 6 kg of weight. In the last 20 days, the patient developed hemoptysis, which lead them to hospitalization. […] They also had total opacification of the right lung. The patient was diagnosed with lung cancer and sent home. The patient was treated with 3-50 mg Zinc Iodide capsules/day for 120 days. After 5 days, their breathing capabilities and cough improved.

[5] = system: stage IV breast cancer metastasized to lungs and brain; test: Case Study 3; type: in vivo, human
Experimental: A patient was diagnosed with stage IV breast cancer and invasive ductal carcinoma metastasized to multiple organs (lungs and brain). […] They then took 3 dosages of 50 mg of zinc iodide per day orally. A chest ray was taken 61 days after the start of treatment, as shown the lung metastases decreased by more than 60%.

Case Study 15 = type: in vivo, human
Experimental: Due to this, they were hospitalized 4-5 times/year. For 3 years, they used a corticosteroid inhaler, bronchodilator, antibiotics and COPD medication to no avail. They were also taking hypertension medication as a result of the COPD treatment. Their blood pressure was 160/96 and Forced Expiratory Volume (FEV1) at 58%. The patient was treated with 3-50 mg Zn Iodide capsules/day. […] […] (FEV1) was 67% and their blood pressure decreased to 130/90. […] Even though they were not taking COPD medication, there were no signs of infections either.

[6] = system: pancreatic adenocarcinoma; test: Case Study 16; type: in vivo, human
Experimental: A person presented symptoms of abdominal pain, nausea, and vomiting. […] They also had multiple metastases on their liver. They were diagnosed with pancreatic adenocarcinoma. Their CA 19-9 (levels of tumor-associated antigens in the blood) was 365 U/mL. The patient was treated through infusion with 200 mg of zinc Iodide mixing with 1000 mL of 0.9% sodium chloride solution and 10 mL of DMSO. The symptoms presented improved after 2 days of treatment. […] After 35 days on the treatment, an ultrasound was taken of the pancreas. The tumor had decreased to 4.3 cm×5.2 cm. Their CA 19-9 levels decreased to 168 U/mL. After 40 treatments, the patient began treatment orally; they were given 50 mg zinc iodide capsules 3 times/day. After 155 days on the oral treatment, a CT of their pancreas was taken. The tumor decreased to 2.4 cm×3.6 cm. The liver metastasis decreased by 50% also.

[7] = after further 90 days of oral treatment
[8] = 105 days after the beginning of treatment
[9] = 61 days after the start of treatment

SMILES: O=C(O)c1ccccc1O [salicylic acid]
- cellular activity [1]: no effect on cellular activity

SMILES: [I][Zn][I] [Zinc Iodide, zinc iodide]
- RBC, hemoglobin and serum calcium levels ([2]; after oral treatment): normalized
- symptoms ([2]; after oral treatment): no symptoms
- ultrasound and x-ray scans ([2]; after oral treatment): no abnormalities
- PSA ([2]; after oral treatment, before treatment 260): 40 ng/mL
- pain medication ([2]; by day 20): stopped all pain medication
- RBC count ([2]; day 20, before treatment 3.2): 4.2 million cells/uL
- serum calcium levels ([2]; day 20, before treatment 3.5): 2.5 mmol/L
- hemoglobin ([2]; day 20, before treatment 9): 10.7 g/dL
- pain improvement ([2]; within 7 days): 70%
- CA 19-9 level ([3]; 63rd day): 46 U/mL
- liver metastases ([3]; 63rd day): no indications of liver metastases
- symptoms ([3]; after treatment): symptom free
- total bilirubin ([3]; at 10 days, before treatment 78): 56
- AST ([3]; at 10 days, before treatment 113): 73 U/L
- GGT ([3]; at 10 days, before treatment 149): 149 U/L
- ALT ([3]; at 10 days, before treatment 187): 73 U/L
- CA 19-9 ([3]; at 10 days, before treatment 385): 184 U/L
- body weight gained ([3]; during oral treatment): 4 kg
- pain ([3]; within 7 days): completely disappeared
- GOT (liver cancer; after 10 days, GOT before treatment 326): 224 IU/L
- blood glucose level (liver cancer; after 10 days, before treatment 8.5): 7.6 mmol/L
- GGT (liver cancer; after 10 days, before treatment 251): 93 IU/L
- GPT (liver cancer; after 10 days, before treatment 293): 187 IU/L
- AFP (liver cancer; after 10 days, before treatment 1450): 1209 IU/L
- AFP (liver cancer; after 21 days): 678 IU/L
- GGT (liver cancer; after 21 days): 124 IU/L
- GOT (liver cancer; after 21 days): 146 IU/L
- GPT (liver cancer; after 21 days): 126 IU/L
- blood glucose level (liver cancer; after 21 days): 6.7 mmol/L
- AFP (liver cancer; [7]): 107 IU/L
- GGT (liver cancer; [7]): 115 IU/L
- GOT (liver cancer; [7]): 195 IU/L
- GPT (liver cancer; [7]): 69 IU/L
- blood glucose level (liver cancer; [7]): 7.4 mmol/L
- abdominal pain (liver cancer; within 5 days): disappeared
- GGT levels (cholangiocarcinoma; 105 days): 784 U/L
- GOT levels (cholangiocarcinoma; 105 days): 67 U/L
- GPT levels (cholangiocarcinoma; 105 days): 54 U/L
- total bilirubin (cholangiocarcinoma; 105 days): 28
- symptoms (cholangiocarcinoma; [8]): no longer experienced symptoms
- weight gained (cholangiocarcinoma; [8]): 4 kg
- GPT (cholangiocarcinoma; after 10 days, before treatment 127): 97 U/L
- total bilirubin (cholangiocarcinoma; after 10 days, before treatment 139): 75
- GOT (cholangiocarcinoma; after 10 days, before treatment 163): 121 U/L
- GGT (cholangiocarcinoma; after 10 days, before treatment 1410): 1267 U/L
- GGT (cholangiocarcinoma; at 21 days): 978 U/L
- GOT (cholangiocarcinoma; at 21 days): 85 U/L
- GPT (cholangiocarcinoma; at 21 days): 193 U/L
- jaundice (cholangiocarcinoma; at 21 days): improved
- total bilirubin (cholangiocarcinoma; at 21 days): 56
- digestive health (cholangiocarcinoma; within 5 days): improved significantly
- lymph nodes ([4]; 105th day): clear of metastases
- fever and pain ([4]; after 3 days): no symptoms of fever or pain
- general health ([4]; after 3 days): improved
- eating and drinking ([4]; within 3 weeks): could eat and drink normally
- breathing capabilities and cough (lung cancer; after 5 days): improved
- clearance of opacification (CT) (lung cancer; after 121 days): 80%
- blood in sputum (lung cancer; by 12 days): no longer had blood in their sputum
- decrease of lung metastases [5, 9]: more than 60%
- reduction of brain metastases (MRI) [5, 9]: 50%
- symptoms of coughing, headache and nausea ([5]; over 12 days of infusion): gradually improved
- Forced Expiratory Volume (FEV1) (Case Study 15; 92 days after first treatment): 75%
- blood pressure (Case Study 15; 92 days after first treatment): 125/90
- shortness of breath (Case Study 15; 92 days after first treatment): no longer had shortness of breath
- need for fast acting bronchodilator inhalers (Case Study 15; after 3 days): no longer needed fast acting bronchodilator inhalers
- COPD related symptoms (Case Study 15; at 30 days): remarkable improvement
- Forced Expiratory Volume (FEV1) (Case Study 15; at 30 days, before treatment 58%): 67%
- blood pressure (Case Study 15; at 30 days, before treatment 160/96): 130/90
- COPD related episodes (Case Study 15; in the following 2 months): did not have any COPD related episodes
- need for corticosteroid inhalers (Case Study 15; within 10 days): no longer needed corticosteroid inhalers
- symptoms ([6]; after 2 days of treatment): improved
- CA 19-9 levels ([6]; after 35 days, before treatment 365): 168 U/mL
- decrease of liver metastasis ([6]; after 155 days on the oral treatment): 50%
- symptoms ([6]; by the 5th day): almost symptom-free
